Assay results published in ChEMBL document CHEMBL3714713, “4-phenyl-pyrimido [4,5-b] indole derivatives” (2004).
Active and inactive are the calls of the source. The rule behind the calls is not given here.

What was measured:
Mus musculus [1] = assay: Inhibition of anti-CD3 antibody-induced IL2 production in Balb/c mouse dosed intravenously 5 mins before anti-CD3 antibody injection and measured 2 hrs post-challenge by ELISA; format: functional, organism-based
Mus musculus [2] = assay: Inhibition of anti-CD3 antibody-induced IL4 production in Balb/c mouse dosed intravenously 5 mins before anti-CD3 antibody injection and measured 2 hrs post-challenge by ELISA; format: functional, organism-based
Mus musculus [3] = assay: Inhibition of anti-CD3 antibody-induced IFNgamma production in Balb/c mouse dosed intravenously 5 mins before anti-CD3 antibody injection and measured 2 hrs post-challenge by ELISA; format: functional, organism-based
[4] = biological target: T1, Dual specificity mitogen-activated protein kinase kinase 7 (Homo sapiens, UniProt O14733); assay: Inhibition of GST-tagged human MKK7 expressed in Escherichia coli (BL21(DE3) pLysS) co-expressing human MEKK catalytic domain using biotinylated and GST-tagged rat GST-KN-SAPKalpha substrate incubated for 1 hr by time-resolved fluorescence based assay
T1 sequence (O14733 whole entry): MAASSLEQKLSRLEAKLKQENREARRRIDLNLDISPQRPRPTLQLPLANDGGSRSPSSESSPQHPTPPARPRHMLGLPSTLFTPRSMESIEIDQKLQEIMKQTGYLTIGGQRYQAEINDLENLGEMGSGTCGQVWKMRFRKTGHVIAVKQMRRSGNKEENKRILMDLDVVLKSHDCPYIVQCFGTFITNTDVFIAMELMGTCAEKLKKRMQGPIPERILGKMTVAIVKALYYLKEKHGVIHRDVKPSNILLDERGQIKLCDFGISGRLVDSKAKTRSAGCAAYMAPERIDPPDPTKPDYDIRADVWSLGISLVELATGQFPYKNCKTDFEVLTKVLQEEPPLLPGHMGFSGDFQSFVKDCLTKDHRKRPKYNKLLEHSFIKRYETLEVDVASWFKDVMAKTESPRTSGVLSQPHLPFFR

IC50 [4] | Compound | Activity (Mus musculus [1]) | Activity (Mus musculus [2]) | Activity (Mus musculus [3])
– | N#Cc1ccc2[nH]c3ncnc(-c4ccccc4)c3c2c1 | Active | Active | Active
– | COc1ccc(-c2ncnc3[nH]c4ccc(C(N)=O)cc4c23)cc1 | Active | Active | Active
– | N#Cc1ccc2[nH]c3ncnc(-c4cccc(N)c4)c3c2c1 | Active | Active | Active
– | COc1ccc(-c2ncnc3[nH]c4ccc(C#N)cc4c23)cc1 | Active | Active | Active
– | N#Cc1ccc2[nH]c3ncnc(-c4ccc(F)cc4)c3c2c1 | Active | Active | Active
– | CN(C)c1ccc(-c2ncnc3[nH]c4ccc(C#N)cc4c23)cc1 | Active | Active | Active
1000 nM | CN(C)c1ccc(-c2ncnc3[nH]c4ccc(C(N)=O)cc4c23)cc1 | Active | Active | Active
≤ 1000 nM | NC(=O)c1ccc2[nH]c3ncnc(-c4ccccc4)c3c2c1 | Active | Active | Active
≤ 1000 nM | Oc1ccc2[nH]c3ncnc(-c4ccc(F)cc4)c3c2c1 | Active | Active | Active
≤ 1000 nM | COc1ccc(-c2ncnc3[nH]c4ccc(O)cc4c23)cc1 | Active | Active | Active
≤ 1000 nM | Oc1ccc2[nH]c3ncnc(-c4ccccc4)c3c2c1 | Active | Active | Active
≤ 1000 nM | NC(=O)c1ccc2[nH]c3nc(N)nc(-c4ccccc4)c3c2c1 | Active | Active | Active
≤ 1000 nM | NC(=O)c1ccc2[nH]c3ncnc(-c4ccc(F)cc4)c3c2c1 | Active | Active | Active
– | COc1ccc(-c2ncnc3[nH]c4ccc(OC)cc4c23)cc1 | Active | Active | Active
– | NC(=O)c1ccc2[nH]c3ncnc(-c4cccc(N)c4)c3c2c1 | Active | Active | Active
– | COc1ccc2[nH]c3ncnc(-c4ccccc4)c3c2c1 | Active | Active | Active
– | N#Cc1ccc2[nH]c3nc(N)nc(-c4ccccc4)c3c2c1 | Active | Active | Active
